From patent publication US9611248B2, “Chemical compounds” (Syngenta Participations AG, priority 2013, dated 2017) come the findings set out here.

Structures are written as SMILES.

The assay concerns a variety of test species. Description: Post-emergence herbicidal activity. It is filed as in vivo. The arrangement: key to ABUTH (Abutilon theophrasti) damage score / AMARE (Amaranthus retroflexus) damage score / ALOMY (Alopecurus myosuroides) damage score / ECHCG (Echinochloa crus-galli) damage score / ZEAMX (Zea mays) damage score / SOLNI (Solanum nigrum) damage score: 0 = no damage to plant, 5 = total damage to plant. The settings on record: rate 1000 g/ha, evaluated after 13 days. The gist of the method: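 Damage on a 0–5 scale (5 = plant killed) was rated 13 days after treatment. Test species had been sown in standard soil and raised 8 days under glasshouse conditions of 24/16 °C, 14 h light, 65% humidity. They were then sprayed with aqueous solution from an acetone/water 50:50 formulation containing 0.5% Tween 20.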
Regarding `COC1=C(C)C(=O)N(c2cc(C(F)(F)F)c(Br)cn2)C1O` (stereo not drawn) [AD31, 1-[5-bromo-4-(trifluoromethyl)-2-pyridyl]-2-hydroxy-3-methoxy-4-methyl-2H-pyrrol-5-one], the “ABUTH (Abutilon theophrasti) damage score” value (from here on “ABUTH”) was determined as 5, the “ALOMY (Alopecurus myosuroides) damage score” value (shortened to “ALOMY”) was determined as 5, the “AMARE (Amaranthus retroflexus) damage score” value (shortened to “AMARE”) came to 5 and the “ECHCG (Echinochloa crus-galli) damage score” value (shortened to “ECHCG”) was 5. Moreover, the “SETFA (Setaria faberi) damage score” value came to 4 and the “ZEAMX (Zea mays) damage score” value is 1.
Regarding `C=Cc1ccc(N2C(=O)C(C)=C(OC)C2O)nc1` (stereo not drawn) [AD33], the “ABUTH” value turned out to be 2, the “ALOMY” value is 1, the “AMARE” value is 1 and the “ECHCG” value came to 3. Moreover, the “SETFA (Setaria faberi) damage score” value turned out to be 2 and the “ZEAMX (Zea mays) damage score” value turned out to be 0.
As to `COC1=C(C)C(=O)N(c2cc(C(F)(F)F)ccn2)C1O` (stereo not drawn) [AD34], the “ABUTH” value was 5, the “ALOMY” value is given as 5, the “AMARE” value was 5 and the “ECHCG” value turned out to be 5. In addition, the “SETFA (Setaria faberi) damage score” value is recorded as 5 and the “ZEAMX (Zea mays) damage score” value is listed as 0.
Consider `COC1=C(C)C(=O)N(c2ccc(C(F)(F)F)cn2)C1O` (stereo not drawn) [AD35], for which the “ALOMY” value turned out to be 3, the “AMARE” value was found to be 5, the “ECHCG” value came to 3 and the “SETFA (Setaria faberi) damage score” value was 4. In addition, the “SOLNI (Solanum nigrum) damage score” value came out at 5 and the “ZEAMX (Zea mays) damage score” value worked out at 0.
With `COC(=O)c1cnc(N2C(=O)C(C)=C(OC)C2O)cc1C(F)(F)F` (stereo not drawn) [AD37], the “ABUTH” value was determined as 4, the “ALOMY” value is 3, the “AMARE” value is 5 and the “ECHCG” value was 3. The “SETFA (Setaria faberi) damage score” value is 2 and the “ZEAMX (Zea mays) damage score” value was 0.
Consider `COC1=C(C)C(=O)N(c2cc(C(F)(F)F)c(/C(C)=C/C#N)cn2)C1O` (stereo not drawn) [AD38, (E)-3-[6-(2-hydroxy-3-methoxy-4-methyl-5-oxo-2H-pyrrol-1-yl)-4-(trifluoromethyl)-3-pyridyl]but-2-enenitrile], for which the “ABUTH” value was found to be 5, the “ALOMY” value was determined as 5, the “AMARE” value is given as 5 and the “ECHCG” value is 5. Further, the “SETFA (Setaria faberi) damage score” value came to 5 and the “ZEAMX (Zea mays) damage score” value is listed as 0.
Consider `COC1=C(C)C(=O)N(c2cc(OC(F)(F)F)ccn2)C1O` (stereo not drawn) [AD39], for which the “ABUTH” value amounted to 4, the “ALOMY” value was 4, the “AMARE” value turned out to be 2 and the “ECHCG” value is 4. The “SETFA (Setaria faberi) damage score” value is recorded as 4 and the “ZEAMX (Zea mays) damage score” value is 0.
Turning to `COC1=C(C)C(=O)N(c2cc(C(C)(C)C)ccn2)C1O` (stereo not drawn) [AD40], the “ABUTH” value came to 5, the “ALOMY” value came out at 5, the “AMARE” value was 5 and the “ECHCG” value amounted to 5. The “SETFA (Setaria faberi) damage score” value is given as 5 and the “ZEAMX (Zea mays) damage score” value turned out to be 3.
For the compound `C=CCOC1=C(C)C(=O)N(c2cc(C(F)(F)F)ccn2)C1O` (stereo not drawn) [AD42], the “ABUTH” value came out at 5, the “ALOMY” value was 4, the “AMARE” value turned out to be 5 and the “ECHCG” value is reported as 5. Further, the “SETFA (Setaria faberi) damage score” value worked out at 5 and the “ZEAMX (Zea mays) damage score” value is 2.
Take `CC1=C(OCC(F)(F)F)C(O)N(c2cc(C(F)(F)F)ccn2)C1=O` (stereo not drawn) [AD44, 2-hydroxy-4-methyl-3-(2,2,2-trifluoroethoxy)-1-[4-(trifluoromethyl)-2-pyridyl]-2H-pyrrol-5-one]: the “ABUTH” value is on record as 5, the “ALOMY” value amounted to 3, the “AMARE” value is 5 and the “ECHCG” value stood at 4. For the same compound, the “SETFA (Setaria faberi) damage score” value stood at 5 and the “ZEAMX (Zea mays) damage score” value is on record as 1.
On to `CCOC1=C(C)C(=O)N(c2cc(C(F)(F)F)ccn2)C1O` (stereo not drawn) [AD45, 3-ethoxy-2-hydroxy-4-methyl-1-[4-(trifluoromethyl)-2-pyridyl]-2H-pyrrol-5-one], for which the “ABUTH” value is listed as 5, the “ALOMY” value worked out at 4, the “AMARE” value came to 5 and the “ECHCG” value turned out to be 5. For the same compound, the “SETFA (Setaria faberi) damage score” value is listed as 3 and the “ZEAMX (Zea mays) damage score” value was 1.
As to `COC1=C(C)C(=O)N(c2ccc(OC(F)(F)F)cn2)C1O` (stereo not drawn) [AD47], the “ABUTH” value came out at 5, the “ALOMY” value is recorded as 3, the “AMARE” value is 5 and the “ECHCG” value came out at 3. Also, the “SETFA (Setaria faberi) damage score” value is listed as 4 and the “ZEAMX (Zea mays) damage score” value worked out at 0.
On to `COC1=C(C)C(=O)N(c2cc(C(F)(F)F)c(I)cn2)C1O` (stereo not drawn) [AD51], for which the “ABUTH” value worked out at 5, the “ALOMY” value was found to be 4, the “AMARE” value is on record as 5 and the “ECHCG” value turned out to be 5. In addition, the “SETFA (Setaria faberi) damage score” value is 5 and the “ZEAMX (Zea mays) damage score” value came out at 1.
Consider `COC1=C(C)C(=O)N(c2cc(C(C)(C)CCl)ccn2)C1O` (stereo not drawn) [AD52], for which the “ABUTH” value was 5, the “ALOMY” value was 5, the “AMARE” value came out at 4 and the “ECHCG” value is 5. Moreover, the “SETFA (Setaria faberi) damage score” value is reported as 5 and the “ZEAMX (Zea mays) damage score” value is reported as 1.
Turning to `COC1=C(C)C(=O)N(c2cc(C(F)(F)F)c(C(=O)NC(C)C)cn2)C1O` (stereo not drawn) [AD53], the “ABUTH” value was 5, the “ALOMY” value is given as 5, the “AMARE” value was 5 and the “ECHCG” value was 5. The “SETFA (Setaria faberi) damage score” value was found to be 5 and the “ZEAMX (Zea mays) damage score” value is 5.
Turning to `COC1=C(C)C(=O)N(c2cc(C(F)(F)F)c(C(=O)NC(C)(C)C)cn2)C1O` (stereo not drawn) [AD54], the “ABUTH” value is 5, the “ALOMY” value was 5, the “AMARE” value was 5 and the “ECHCG” value is 5. Besides, the “SETFA (Setaria faberi) damage score” value came out at 5 and the “ZEAMX (Zea mays) damage score” value came to 5.
In the case of `CCOc1cnc(N2C(=O)C(C)=C(OC)C2O)cc1C(F)(F)F` (stereo not drawn) [AD55], the “ABUTH” value turned out to be 5, the “ALOMY” value was found to be 5, the “AMARE” value worked out at 5 and the “ECHCG” value was 5. The “SETFA (Setaria faberi) damage score” value is 5 and the “ZEAMX (Zea mays) damage score” value came to 3.
Consider `COC1=C(C)C(=O)N(c2cc(C(F)(F)F)c(OCC(C)C)cn2)C1O` (stereo not drawn) [AD56], for which the “ABUTH” value is 5, the “ALOMY” value turned out to be 5, the “AMARE” value is given as 5 and the “ECHCG” value is listed as 5. Also, the “SETFA (Setaria faberi) damage score” value stood at 5 and the “ZEAMX (Zea mays) damage score” value is reported as 0.
In the case of `COC1=C(C)C(=O)N(c2cc(C(F)(F)F)c(OCC3CCCO3)cn2)C1O` (stereo not drawn) [AD57], the “ABUTH” value stood at 5, the “ALOMY” value is 4, the “AMARE” value came out at 5 and the “ECHCG” value turned out to be 5. Also, the “SETFA (Setaria faberi) damage score” value was 5 and the “ZEAMX (Zea mays) damage score” value was 1.
Consider `COC1=C(C)C(=O)N(c2cc(C(F)(F)F)c(/C(C)=C\C#N)cn2)C1O` (stereo not drawn) [AD58, (Z)-3-[6-(2-hydroxy-3-methoxy-4-methyl-5-oxo-2H-pyrrol-1-yl)-4-(trifluoromethyl)-3-pyridyl]but-2-enenitrile], for which the “ABUTH” value was 5, the “ALOMY” value came out at 4, the “AMARE” value worked out at 5 and the “ECHCG” value was found to be 5. The “SETFA (Setaria faberi) damage score” value is listed as 5 and the “ZEAMX (Zea mays) damage score” value was determined as 2.
In the case of `COC1=C(C)C(=O)N(c2cc(C(F)(F)F)c(-c3ccc(F)cc3)cn2)C1O` (stereo not drawn) [AD59], the “ABUTH” value is on record as 5, the “ALOMY” value is 4, the “AMARE” value is listed as 5 and the “ECHCG” value is given as 4. Moreover, the “SETFA (Setaria faberi) damage score” value stood at 5 and the “ZEAMX (Zea mays) damage score” value is given as 1.
In the case of `COC1=C(C)C(=O)N(c2cc(C)c(-c3ccc(F)cc3)cn2)C1O` (stereo not drawn) [AD60], the “ABUTH” value is 5, the “ALOMY” value came out at 2, the “AMARE” value was 5 and the “ECHCG” value is reported as 1. For the same compound, the “SETFA (Setaria faberi) damage score” value came to 4 and the “ZEAMX (Zea mays) damage score” value is given as 1.
In the case of `COC1=C(C)C(=O)N(c2cc(C)c(-c3ccsc3)cn2)C1O` (stereo not drawn) [AD61], the “ABUTH” value was found to be 5, the “ALOMY” value came to 1, the “AMARE” value amounted to 5 and the “ECHCG” value came out at 3. Also, the “SETFA (Setaria faberi) damage score” value stood at 4 and the “ZEAMX (Zea mays) damage score” value turned out to be 1.
